This note sets out measurements from patent US20220389061A1, “IMMUNOMODULATORS” (priority 2019, published 2022).

Starred links: 1 amine or outer side, 2 acyl side, 3 side chain; linkers in the order of their positions; H or OH if unused. Positions of bridges follow the written chain, without caps; N, C: chain ends. Non-standard residues stand in square brackets, D forms with d. Residues, ends and D or L forms follow the SMILES beside them. Groups on a side chain read outwards from the residue. *: point of attachment. Trp(1-CH2COOH) = N[C@@H](Cc1cn(CC(=O)O)c2ccccc12)C(=O)O; NH(benzothiophen-5-yl) = c1cc2cc(N*)ccc2s1; X8 = NC(=O)c1c[nH]c2c(NC(=S)*)cccc12; Hyp = O=C(O)[C@@H]1C[C@@H](O)CN1; X14 = Cc1c[nH]c2c(NC(=S)*)cccc12; NMeNle = CCCC[C@H](NC)C(=O)O; X54 = S=C(Nc1cccc2ncccc12)*; NMeA = CN[C@@H](C)C(=O)O; Dab = NCC[C@H](N)C(=O)O; X45 = c1ccc2sc(N*)cc2c1; Dap = NC[C@H](N)C(=O)O; CO = O=C([*:1])[*:2]

T1 sequence (Q9NZQ7 18-239): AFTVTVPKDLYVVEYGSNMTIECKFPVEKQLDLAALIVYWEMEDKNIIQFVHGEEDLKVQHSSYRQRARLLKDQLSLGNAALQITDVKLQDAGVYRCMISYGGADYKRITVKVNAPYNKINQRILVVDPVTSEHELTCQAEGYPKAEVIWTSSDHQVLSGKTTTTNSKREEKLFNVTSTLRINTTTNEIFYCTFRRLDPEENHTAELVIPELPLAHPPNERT

This assay addresses T1, PD-1/PD-L1 (Homo sapiens, UniProt Q9NZQ7).
T1 construct: TVMV protease site linker (C); made in house; host or cells: HEK293T cells
The experiment in a line: PD-1/PD-L1 Homogenous Time-Resolved Fluorescence (HTRF) binding assay. The following applies: PD-L1-His 10 nM pre-incubated with inhibitor, PD-1-Ig 20 nM; read-out: HTRF IC50. Summed up:
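Compounds preincubated 15 min with PD-L1-His (10 nM final), then PD-1-Ig (20 nM final) added for 15 min in dPBS with 0.1% BSA, 0.05% Tween-20. Detection by Eu-cryptate anti-Ig (1 nM) and APC anti-His (20 nM) HTRF.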
For `CCCC[C@H]1C(=O)N(C)[C@@H](CCCC)C(=O)N[C@@H](CC(C)C)C(=O)N[C@H](C(=O)NCC(N)=O)CSCC(=O)N[C@@H](Cc2ccc(O)cc2)C(=O)N(C)[C@@H](C)C(=O)N[C@@H](CC(N)=O)C(=O)N2CCC[C@H]2C(=O)N[C@@H](CNC(=O)Nc2cc3ccccc3s2)C(=O)N[C@@H](CC(C)C)C(=O)N2C[C@H](O)C[C@H]2C(=O)N[C@@H](Cc2c[nH]c3ccccc23)C(=O)N[C@@H](CCNC(=O)Nc2cc3ccccc3s2)C(=O)N[C@@H](Cc2cn(CC(=O)O)c3ccccc23)C(=O)N1C` [Example 3022] ({CH2CO}-Y[NMeA]NP[Dap]([CO-X45])L[Hyp]W[Dab]([CO-X45])[Trp(1-CH2COOH)][NMeNle][NMeNle]LCG-NH2; thioether N-14), the IC50 (as a rule, the point on the concentration scale where inhibition reaches its midpoint) turned out to be 11 nM. As for `CCCC[C@H]1C(=O)N(C)[C@@H](CCCC)C(=O)N[C@@H](CC(C)C)C(=O)N[C@H](C(=O)NCC(N)=O)CSCC(=O)N[C@@H](Cc2ccc(O)cc2)C(=O)N(C)[C@@H](C)C(=O)N[C@@H](CC(N)=O)C(=O)N2CCC[C@H]2C(=O)N[C@@H](CNC(=S)Nc2cccc3c(C(N)=O)c[nH]c23)C(=O)N[C@@H](CC(C)C)C(=O)N2C[C@H](O)C[C@H]2C(=O)N[C@@H](Cc2c[nH]c3ccccc23)C(=O)N[C@@H](CCNC(=S)Nc2cccc3c(C(N)=O)c[nH]c23)C(=O)N[C@@H](Cc2cn(CC(=O)O)c3ccccc23)C(=O)N1C` [Example 3023] ({CH2CO}-Y[NMeA]NP[Dap](X8)L[Hyp]W[Dab](X8)[Trp(1-CH2COOH)][NMeNle][NMeNle]LCG-NH2; thioether N-14), the figure is 1.6 nM; as for `CCCC[C@H]1C(=O)N(C)[C@@H](CCCC)C(=O)N[C@@H](CC(C)C)C(=O)N[C@H](C(=O)NCC(N)=O)CSCC(=O)N[C@@H](Cc2ccc(O)cc2)C(=O)N(C)[C@@H](C)C(=O)N[C@@H](CC(N)=O)C(=O)N2CCC[C@H]2C(=O)N[C@@H](CNC(=S)Nc2cccc3ncccc23)C(=O)N[C@@H](CC(C)C)C(=O)N2C[C@H](O)C[C@H]2C(=O)N[C@@H](Cc2c[nH]c3ccccc23)C(=O)N[C@@H](CCNC(=S)Nc2cccc3ncccc23)C(=O)N[C@@H](Cc2cn(CC(=O)O)c3ccccc23)C(=O)N1C` [Example 3024] ({CH2CO}-Y[NMeA]NP[Dap](X54)L[Hyp]W[Dab](X54)[Trp(1-CH2COOH)][NMeNle][NMeNle]LCG-NH2; thioether N-14), 3.2 nM; as for `CCCC[C@H]1C(=O)N(C)[C@@H](CCCC)C(=O)N[C@@H](CC(C)C)C(=O)N[C@H](C(=O)NCC(N)=O)CSCC(=O)N[C@@H](Cc2ccc(O)cc2)C(=O)N(C)[C@@H](C)C(=O)N[C@@H](CC(N)=O)C(=O)N2CCC[C@H]2C(=O)N[C@@H](CNC(=S)Nc2cccc3c(C)c[nH]c23)C(=O)N[C@@H](CC(C)C)C(=O)N2C[C@H](O)C[C@H]2C(=O)N[C@@H](Cc2c[nH]c3ccccc23)C(=O)N[C@@H](CCNC(=S)Nc2cccc3c(C)c[nH]c23)C(=O)N[C@@H](Cc2cn(CC(=O)O)c3ccccc23)C(=O)N1C` [Example 3025] ({CH2CO}-Y[NMeA]NP[Dap](X14)L[Hyp]W[Dab](X14)[Trp(1-CH2COOH)][NMeNle][NMeNle]LCG-NH2; thioether N-14), 2.9 nM. As for `CCCC[C@H]1C(=O)N(C)[C@@H](CCCC)C(=O)N[C@@H](CC(C)C)C(=O)N[C@H](C(=O)NCC(N)=O)CSCC(=O)N[C@@H](Cc2ccc(O)cc2)C(=O)N(C)[C@@H](C)C(=O)N[C@@H](CC(N)=O)C(=O)N2CCC[C@H]2C(=O)N[C@@H](CNC(=O)Nc2ccc3sccc3c2)C(=O)N[C@@H](CC(C)C)C(=O)N2C[C@H](O)C[C@H]2C(=O)N[C@@H](Cc2c[nH]c3ccccc23)C(=O)N[C@@H](CCN)C(=O)N[C@@H](Cc2cn(CC(=O)O)c3ccccc23)C(=O)N1C` [Example 3026] ({CH2CO}-Y[NMeA]NP[Dap]([CO-NH(benzothiophen-5-yl)])L[Hyp]W[Dab][Trp(1-CH2COOH)][NMeNle][NMeNle]LCG-NH2; thioether N-14), the figure is 3.3 nM.
